# Assay results taken from PubChem BioAssay AID1053148 (Broad Institute, 2014).
# System: HepG2 ERK1/2 phosphorylation, Western blot imaging
# Test: ERK1/2 phosphorylation increase by Trib1 inducers, late-stage follow-up, mechanism study for Trib1 inducer project, cell-based, HepG2, Western blot imaging, cherry-pick (AID 1053148)
# Details: active compounds read high
compound,measurement,value
CN1C(=O)c2cc(NC(=O)c3ccc(C(F)(F)F)cc3)ccc2OC[C@@H]2O[C@H](CC(=O)NC3Cc4ccccc4C3)CC[C@@H]21,fold induction x10,2
